{
  "source": "paper PMC12557383",
  "about": "“Development of a Potent and Functional In Vivo Peptide Competitive Inhibitor for the Toxin MazF” (Journal of Medicinal Chemistry, 2025)",
  "type_in_all_cases": "cell-based, Escherichia coli",
  "key": {"[1]": {"tested_on": "E. coli cells expressing MazF", "assay": "Antibiotic survival assay (ciprofloxacin), coexpression with MazF", "conditions": "4 μg/mL ciprofloxacin, up to 4 h; toxin induced 1 h before antibiotic", "description": "This experiment was conducted as described above (“bacterial growth assay”) until the induction of the toxin. However, 1 h after mazF induction with 0.5% of L-arabinose, approximately two million cells were removed from each culture and diluted with LB (final volume of 10 mL) supplemented with IPTG, L-arabinose, and antibiotics for plasmid maintenance. Here, an aliquot of 1 mL was withdrawn, which represents time zero (before the implementation of antibiotic stress). Cells were then exposed to 4 μg/mL ciprofloxacin and incubated at 37 °C/215 rpm for 4 h. Aliquots of 1 mL were taken at intervals of 1 h and washed three times with LB medium (5,000 rpm/5 min/4 °C) to remove the antibiotic. After the last wash step, the culture medium was removed, and the cell pellet was resuspended in 100 μL of LB medium. 10-fold serial dilutions were made from this solution using LB medium, and 2 μL of each dilution was spotted on solid LB-agar supplemented with antibiotics for the maintenance of plasmids. Plates were incubated at 37 °C for 24 h and photographed. The experiment was repeated at least three times."}, "[2]": {"tested_on": "E. coli cells superexpressing MazF", "assay": "Oxygen consumption assay, coexpression with MazF", "conditions": "cells coexpressing MazF and recombinant SamF; 1 mM IPTG, 1% L-arabinose, 37 °C", "description": "This experiment was conducted as described above (“bacterial growth assay”). However, 90 min after induction of recombinant samF with 1 mM IPTG, an aliquot of 1 mL of a cell suspension containing approximately 2.5 million cells was removed from each culture and placed into the chamber of an Oroboros O2K oxygraph (Bioplast) instrument. After equilibration of the oxygen consumption rate, mazF expression was induced by the addition of 1% of L-arabinose, and the consumption rate and amount of dissolved oxygen was monitored for a period of about 3 h. The experiment was carried out at 37 °C under orbital shaking at 200 rpm and repeated at least three times."}, "[3]": {"tested_on": "E. coli cells superexpressing MazF", "assay": "Resazurin assay (redox state), coexpression with MazF", "conditions": "cells coexpressing MazF and recombinant SamF, 1 h MazF expression, 75 μg/mL resazurin", "description": "This experiment was conducted as described above (“bacterial cell growth assay”). However, 1 h after mazF induction with 1% of L-arabinose, approximately 40 millions of cells in 200 μL of LB (with antibiotics, IPTG and L-arabinose) were taken and incubated with 75 μg/mL of resazurin (final concentration). The experiment was performed in a 96-well plate in triplicate. The plate was incubated at 37 °C/70 rpm, and the color development, due to resazurin reduction, was monitored every hour visually and by scanning the dye absorbance between 500–700 nm."}, "[4]": {"tested_on": "E. coli cells superexpressing MazF", "assay": "Glucose uptake assay (2-NBDG, flow cytometry), coexpression with MazF", "conditions": "cells coexpressing MazF and recombinant SamF, 400 μM 2-NBDG", "description": "This experiment was carried out as described above (“bacterial cell growth assay”). However, 1 h after mazF induction with 1% of L-arabinose, cells were harvested by centrifugation (10 min/4,500 rpm/4 °C). The cell pellet was resuspended in 5 mL of M9 media without glucose or any other carbon source (M9^–glucose). Cells were pelleted again and resuspended in M9^–glucose as above. Ten million cells were removed from this solution in a final volume of 5 mL of M9^–glucose and incubated with 400 μM of the fluorescent glucose analog 2-NDBG (Thermofisher) at 37 °C/300 rpm. Aliquots of 0.5 mL were taken at 1 h intervals for a period of 3 h. To remove the noninternalized 2-NBG dye, cells were centrifuged (10 min/4,500 rpm/4 °C) and the supernatant was removed. After a new wash step with 1 mL of M9^–glucose, the cell pellet was resuspended in 0.5 mL of M9^–glucose. Cells were placed on ice until all samples were collected and then immediately subjected to flow cytometry on a BD FACS Canto II system (BD Biosciences) with an excitation/emission wavelength at 488/530 nm. The percentage of cells labeled with 2-NGDG was calculated relative to the fluorescence of the stainless control with FlowJo software."}},
  "data": [
    {"sequence": "MSHLFWAQFDEYF [recombinant SamF, recombinantly expressed SamF ([…]) from pET-24a-samF in E. coli]", "values": [
      {"measurement": "Survival of cells coexpressing MazF and the peptide under ciprofloxacin (result in words)", "setting": "[1]", "result": "almost eradicated after only 1 h"},
      {"measurement": "Oxygen consumption rate after mazF induction", "setting": "[2]", "result": 20, "unit": "pmol/s"},
      {"measurement": "Time to complete reduction of resazurin", "setting": "[3]", "result": "3 to 4", "unit": "h"},
      {"measurement": "Percentage of cells labeled with 2-NBDG", "setting": "[4]; first hour", "result": 64, "unit": "%"},
      {"measurement": "Percentage of cells labeled with 2-NBDG", "setting": "[4]; second hour", "result": 87, "unit": "%"},
      {"measurement": "Percentage of cells labeled with 2-NBDG", "setting": "[4]; third hour", "result": 96, "unit": "%"}
    ]}
  ]
}
